Experimental data: patent US11370769B2, “TRPC5 inhibitors and methods of using same” (BOARD OF REGENTS OF THE UNIVERSITY OF NEBRASKA, priority 2017, dated 2022)

Target: T1, TRPC6 (Homo sapiens, UniProt Q9Y210)
T1 construct: expressed in transfected cells; host or cells: HEK293
T1 sequence (Q9Y210 1-931): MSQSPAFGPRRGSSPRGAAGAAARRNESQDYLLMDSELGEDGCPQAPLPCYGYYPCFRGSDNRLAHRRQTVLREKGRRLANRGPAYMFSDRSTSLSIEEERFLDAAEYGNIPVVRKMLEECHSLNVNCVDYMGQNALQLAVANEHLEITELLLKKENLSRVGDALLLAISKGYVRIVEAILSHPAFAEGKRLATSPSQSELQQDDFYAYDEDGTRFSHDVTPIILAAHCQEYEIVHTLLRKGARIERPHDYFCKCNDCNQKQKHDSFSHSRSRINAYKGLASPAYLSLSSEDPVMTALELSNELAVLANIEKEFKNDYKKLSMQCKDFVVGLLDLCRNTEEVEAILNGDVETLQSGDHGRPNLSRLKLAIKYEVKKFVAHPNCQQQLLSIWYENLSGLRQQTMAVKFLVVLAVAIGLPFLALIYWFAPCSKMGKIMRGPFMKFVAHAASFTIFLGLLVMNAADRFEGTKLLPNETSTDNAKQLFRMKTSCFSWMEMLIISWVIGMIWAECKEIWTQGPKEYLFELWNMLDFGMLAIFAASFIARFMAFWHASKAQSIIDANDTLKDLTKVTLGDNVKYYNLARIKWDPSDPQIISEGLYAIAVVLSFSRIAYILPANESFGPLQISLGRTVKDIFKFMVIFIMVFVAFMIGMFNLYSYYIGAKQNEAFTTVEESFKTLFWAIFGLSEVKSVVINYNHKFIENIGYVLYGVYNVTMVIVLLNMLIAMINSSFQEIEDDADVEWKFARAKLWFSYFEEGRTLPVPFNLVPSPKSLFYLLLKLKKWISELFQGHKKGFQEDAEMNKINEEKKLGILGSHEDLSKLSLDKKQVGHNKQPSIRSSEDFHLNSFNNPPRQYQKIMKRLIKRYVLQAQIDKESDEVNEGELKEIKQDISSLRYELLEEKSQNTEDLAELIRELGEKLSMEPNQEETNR
Assay: HEK293 whole-cell patch clamp recording, TRPC6 inhibition assay
Assay type: cell-based
Settings: 30 μM, HEK cells expressing TRPC6, OAG 30 μM
Protocol: TRPC4, TRPC5, and TRPC6 inhibition assay: HEK293 whole-cell recordings Whole-cell patch clamp recording was performed 16 h after transfection. The bath solution contained (in mM): 140 NaCl, 5 KCl, 10 HEPES, 2 MgCl2, 2 CaCl2, 10 glucose with pH7.4 adjusted with NaOH. The intracellular solution contained (in mM): 140 KCl, 5 EGTA, 10 HEPES, 2 MgCl2 with pH7.4 adjusted with KOH. The patch pipettes were made using a two-step-protocol (P-97, Sutter Instrument). The pipette resistance was maintained between 4 to 8 MΩ. Once the whole-cell configuration was achieved, cells were clamped at a holding potential of −60 mV, and given a 50 ms ramp stimulation from −100 mV to +100 mV in every 5 s. All currents were filtered at 2 KHz (Axopatch 200B amplifier, Axon Instruments, Union City, Calif.) and digitized at 10 KHz for whole-cell recordings using Axon pCLAMP 10.4. Data were then analyzed using Clampfit 10.4 (Molecular Devices).
HEK293 cell culture and transfection: Transfection of HEK293 cells was carried out using Plus reagent (Invitrogen) and Lipofectamine (Invitrogen) according to standard protocols. For heterologous expression of TRP channels in HEK293 cells, 1 μg of TRPC5-GFP, TRPC6-GFP or TRPC4-GFP plasmids were used to transfect HEK293 cells in a 3.5 cm petri dish where cells were allowed to grow to 80% confluence. Electrophysiology was carried out after 16 h incubation.

In the case of `c1ccc(Cn2c(NCc3ccco3)nc3ccccc32)cc1` [AC1903], the “block of OAG-induced TRPC6 current” value was “failed to block”.
